# Measured values taken from patent publication US6245791A (Aventis Pharma S.A., priority 1998, dated 2001).
# Test system: glutamate uptake in synaptosomes of rat cerebellum
# Description: The increase in glutamate uptake is evaluated in a suspension of synaptosomes prepared from rat cerebellar cells.
# The synaptosomes were prepared according to a modification of the method described by Robinson, M. B., et al., (Brain Res., 544: 196-202, 1991). The tissues of cerebellum or of other regions of the brain of male rats of the Sprague-Dawley breed are homogenized in a sucrose solution (0.32 M) at 4° C. and then centrifuged at 800 g for 10 minutes. The supernatant is then recentrifuged at 20,000 g for 20 minutes. The centrifugation pellet obtained is resuspended in an identical sucrose solution and then centrifuged again at 20,000 g for 20 minutes. The synaptosomes are contained in this second centrifugation pellet. They are suspended and used immediately for measuring glutamate uptake. This is monitored with the aid of tritium-labelled glutamate ([^3 H]glutamate) diluted in a solution of nonradioactive glutamate. After 3 minutes of incubation at 37° C., the synaptosomes are separated from the incubation medium by filtration. […] This radioactivity is proportional to the glutamate uptake. The results are expressed as specific uptake, that is to say the uptake which depends on the presence of sodium ions in the incubation medium. It can be distinguished from the nonspecific uptake which corresponds to the radioactivity measured after equimolar replacement of sodium chloride in the incubation medium with choline chloride. The specific uptake corresponds to the total radioactivity minus the radioactivity measured in the presence of choline chloride.
# The data are the mean values±SEM of n=8 independent observations.
compound,measurement,setting,value
"Nc1nc2ccc(OC(F)(F)F)cc2s1 [riluzole, 2-amino-6-trifluoromethoxybenzothiazole]",dependence of the increase in glutamate uptake on the age of the rats,"cerebellum, postnatal period to adult age, stable after about 10 weeks",increases with the age of the rats
same,uptake of radioactive glutamate (result in words),"rat cerebellar synaptosomes, increasing concentrations of riluzole (FIG. 1)",increased in a concentration-dependent manner
same,maximum increase in glutamate uptake,"rat cerebellar synaptosomes, specific uptake, n=8, 3 min",~40 % of the control values
